Measured values taken from US7115642B2, “Substituted diphenyl isoxazoles, pyrazoles and oxadiazoles useful for treating HCV infection” (priority 2003, dated 2006).
Where two headings read alike, the source gives them in different places.

Columns and labels:
[1] = Cytotoxicity assay (Cell Titer Glo); format: cell-based; details: human; 48 hr with compound, ATP-dependent Cell Titer Glo assay; read-out: IC50 in cytotoxicity assay (number of viable cells)
Description: Compounds 67, 167, 169, 13, 1, 145, 29, 119, 63, 31, 39, 103, 123, 121, 97, 129, 79, 111, 85, 89, 109, 127, 131, 95, 47, 57, 69, 165, 161, 163, 3, 137, 15, 141, 41, 53, 33, 113, 93, 105, 77, 91, 81, 83, 35, 27, 65, 7, 135, 51, 139, 51, 49, 143, 5, 149, 11, 37, 21, 45, 61, 75, 23, 125, 73, 43, 171 and 101 were tested in a cytotoxicity assay with liver cells including an HCV replicon (5-2 Luc cells, 9–13 cells or Huh-7 cells). In the assay, cells were seeded onto 96-well plates (approx. 7500 cells/well in a volume of 90 μl) and grown for 24 hr at 37° C. On day 2, various concentrations of test compound (in a volume of 10 μl) were added to the wells and the cells were grown for an additional 48 hr at 37° C. On day 4, an ATP-dependent R-Luciferase assay (Cell Titer Glo assay) was performed to determine the number of viable cells.

[2] = test system: HCV replicon (5-2 Luc replicon-comprising cells); assay: HCV replicon assay (luciferase); format: cell-based, Hepatitis C virus; details: 5-2 Luc replicon cells, luciferase readout, read-out: Replicon IC50
Summary of the method: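 Readout: IC50 from a 50% drop in luciferase signal (Bright-Glo, luminometer), scored + (≤10 μM) or − (>10 μM). Compounds added at various concentrations to 5-2 Luc replicon cells (Huh7 background), pre-incubated 24 h, then incubated 24 h more before reading.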

[3] = test system: HCV nonstructural protein NS5A or NS3 in 9–13 replicon cells; assay: Quantitative Western blot assay; format: cell-based, Hepatitis C virus; details: 9–13 replicon cells, NS5A or NS3 Western blot, read-out: Western IC50
Description: Alternatively, the inhibitory activity of the compounds can be confirmed using a quantitative Western immunoblot assay utilizing antibodies specific for HCV non-structural proteins, such as NS3, NS4A NS5A and NS5B. In one embodiment of this assay, replicon cells are treated with varying concentrations of test compound to determine the concentration of test compound that yields a 50% reduction in the amount of a non-structural protein produced as compared to a control sample (IC50). A single non-structural protein may be quantified or multiple non-structural proteins may be quantified. Antibodies suitable for carrying out such immunoblot assays are available commercially (e.g., from BIODESIGN International, Saco, Me.).
Certain exemplary compounds of the invention were also tested for their ability to inhibit HCV replication using a quantitative Western blot analysis with antibodies specific for the HCV nonstructural protein NS5A or NS3. Actively dividing 9–13 replicon cells were seeded into Swell plates at a density of 1×10^5 cells/well in a volume of 2 ml/well and incubated at 37° C. and 5% CO2 for 24 hours. Various concentrations of test compounds (in a volume of 10 ul) were added to the wells and the cells incubated for another 48 hours. Protein samples were prepared from the cultured cells, resolved on a SDS-PAGE gel and transferred to a nitrocellulose membrane. The membrane was blocked with 5% non-fat milk in PBS for 1 hour at room temperature. Primary antibody (anti NS5A antibody; BIODESIGN International, Saco, Me. or anti NS3 antibody, Rigel) incubation was performed for 1 hour at room temperature, after which the membrane was washed 3 times (for 15 min per time) with PBST (PBS plus 0.1% Tween 20). Horseradish peroxidase conjugated secondary antibody incubation was performed for 1 hour at room temperature and the membrane was washed 3 times (for 15 min per time) with PBST. The membrane was then soaked in substrate solution (Pierce) and exposed to a film or quantified using an imager. In this assay, the amount of test compound that yielded a 50% reduction in the amount of NS5A or NS3 protein translated as compared to a control sample (IC50) was determined.
In TABLE 1, a value of “+” indicates an IC50 of 10 μM or less in the specified assay; a value of “−” indicates an IC50 of greater than 10 μM in the specified assay.

SMILES | IC50 at 48 h [1] [µM] | IC50 ([2]; Hepatitis C virus) [µM] | IC50 ([3]; Hepatitis C virus) [µM] | IC50 [2] [µM] | IC50 [3] [µM]
O=C(Nc1cc(-c2cc(-c3c(Cl)cccc3Cl)no2)ccc1F)C(Cl)Cl [Compound 1, 2,2-Dichloro-N-[3-[3-(2,6-dichlorophenyl)-5-isoxazolyl]-6-fluorophenyl]Acetamide] | > 10 | < 10 | < 10 |  | 
O=C(Nc1cccc(-c2cc(-c3cccc(Cl)c3Cl)no2)c1)C(Cl)Cl [Compound 3, 2,2-Dichloro-N-[3-[3-(2,3-dichlorophenyl)-5-isoxazolyl]phenyl]Acetamide] | > 10 | > 10 | < 10 |  | 
O=C(Nc1cccc(-c2cc(-c3c(Cl)cccc3Cl)on2)c1)C(Cl)Cl [Compound 5, 2,2-Dichloro-N-[3-[5-(2,6-dichlorophenyl)-3-isoxazolyl]phenyl]Acetamide] | > 10 | < 10 | < 10 |  | 
O=C(Nc1ccc(F)c(-c2cc(-c3c(Cl)cccc3Cl)no2)c1)C(Cl)Cl [Compound 13, 2,2-Dichloro-N-[3-[3-(2,6-dichlorophenyl)-5-isoxazolyl]4-fluorophenyl]Acetamide] | > 10 | < 10 | < 10 |  | 
Cc1ccc(F)c(-c2cc(-c3cccc(NC(=O)C(Cl)Cl)c3)on2)c1Cl [Compound 15, 2,2-Dichloro-N-[3-[3-(2-chloro-6-fluoro-3-methylphenyl)-5-isoxazolyl]phenyl]Acetamide] | > 10 | < 10 | < 10 |  | 
O=C(Nc1cccc(-c2cc(-c3c(F)cccc3S(=O)(=O)N3CCOCC3)no2)c1)C(Cl)Cl [Compound 21, 2,2-Dichloro-N-[3-[3-[2-fluoro-(6-N-morpholinosulfamoyl)phenyl]-5-isoxazolyl]-phenyl]Acetamide] |  |  |  | < 10 | < 10
O=C(Nc1cccc(-c2cc(-c3c(F)cccc3Cl)no2)c1)C(Cl)Cl [Compound 27, 2,2-Dichloro-N-[3-[3-(2-chloro-6-fluorophenyl)-5-isoxazolyl]phenyl]Acetamide] | > 5 | < 10 | < 10 |  | 
O=C(Nc1cccc(-c2cc(-c3c(N4CCOCC4)cccc3C(F)(F)F)no2)c1)C(Cl)Cl [Compound 37, 2,2-Dichloro-N-[3-[3-[2-(N-morpholino)-6-trifluoromethylphenyl)-5-isoxazolyl]phenyl]Acetamide] |  |  |  | < 10 | < 10
O=C(Nc1cccc(-c2cc(-c3c(Cl)cc(OCCN4CCOCC4)cc3Cl)no2)c1)C(Cl)Cl [Compound 75, 2,2-Dichloro-N-[3-[3-[2,6-dichloro 4-(N-morpholinoethyleneoxy)phenyl]-5-isoxazolyl]-phenyl]Acetamide] |  |  |  | > 10 | < 10
O=C(CI)Nc1cccc(-c2cc(-c3c(Cl)cccc3Cl)no2)c1 [Compound 101, 2-Iodo-N-[3-[3-(2,6-dichlorophenyl)-5-isoxazolyl]phenyl]Acetamide] | > 10 | < 10 | > 10 |  | 
COC(=O)c1ccc(Cl)c(-c2cc(-c3cccc(NC(=O)C(Cl)Cl)c3)on2)c1Cl [Compound 135, 2,2-Dichloro-N-[3-[3-(3-carbomethoxy-2,6-dichlorophenyl)-5-isoxazolyl]phenyl]Acetamide] | > 10 | > 10 | > 10 |  | 
Cc1ccc(C(=O)N2CCN(c3cccc(Cl)c3-c3cc(-c4cccc(NC(=O)C(Cl)Cl)c4)on3)CC2)cc1 [Compound 665] |  |  |  | < 10 | < 10
CC(C)(C)OC(=O)NC1CCN(c2cccc(Cl)c2-c2cc(-c3cccc(NC(=O)C(Cl)Cl)c3)on2)C1 (centres unmarked) [Compound 671] |  |  |  | < 10 | < 10
CC(C)(C)OC(=O)NC1CCN(c2cccc(Cl)c2-c2cc(-c3cccc(NC(=O)C(Cl)Cl)c3)on2)C1 (centres unmarked) [Compound 672] |  |  |  | < 10 | < 10
NC1CCN(c2cccc(Cl)c2-c2cc(-c3cccc(NC(=O)C(Cl)Cl)c3)on2)C1 (centres unmarked) [Compound 674] |  |  |  | < 10 | < 10
CN(C)C(=O)NC1CCN(c2cccc(Cl)c2-c2cc(-c3cccc(NC(=O)C(Cl)Cl)c3)on2)C1 (centres unmarked) [Compound 676] |  |  |  | < 10 | < 10
COC(=O)c1cccc(Cl)c1-c1cc(-c2cccc(NC(=O)C(Cl)Cl)c2)on1 [Compound 680] |  |  |  | < 10 | < 10
O=C(Nc1cccc(-c2cc(-c3c(Cl)cccc3C(=O)N3CCN(c4ccccc4)CC3)no2)c1)C(Cl)Cl [Compound 690] |  |  |  | < 10 | < 10

SMILES | IC50 at 48 h [1] [µM] | IC50 ([2]; Hepatitis C virus) [µM] | IC50 ([3]; Hepatitis C virus) [µM] | IC50 [2] [µM] | IC50 [3] [µM]
CN(C)C(=O)c1cccc(Cl)c1-c1cc(-c2cccc(NC(=O)C(Cl)Cl)c2)on1 [Compound 692] |  |  |  | < 10 | < 10
O=C(NCc1ccccn1)c1cccc(Cl)c1-c1cc(-c2cccc(NC(=O)C(Cl)Cl)c2)on1 [Compound 694] |  |  |  | < 10 | < 10
COC(=O)[C@@H](NC(=O)c1cccc(Cl)c1-c1cc(-c2cccc(NC(=O)C(Cl)Cl)c2)on1)C(C)C [Compound 695] |  |  |  | > 10 | < 10
COC(=O)C(NC(=O)c1cccc(Cl)c1-c1cc(-c2cccc(NC(=O)C(Cl)Cl)c2)on1)C(C)C (centres unmarked) [Compound 696] |  |  |  | < 10 | < 10
O=C(Nc1cccc(-c2cc(-c3c(Cl)cccc3C(=O)N3CCN(Cc4ccccc4)CC3)no2)c1)C(Cl)Cl [Compound 697] |  |  |  | > 10 | < 10
CC(C)(C)OC(=O)N1CCN(C(=O)c2cccc(Cl)c2-c2cc(-c3cccc(NC(=O)C(Cl)Cl)c3)on2)CC1 [Compound 698] |  |  |  | > 10 | < 10
O=C(Nc1cccc(-c2cc(-c3c(Cl)cccc3OC3CCCC3)no2)c1)C(Cl)Cl [Compound 699] |  |  |  | < 10 | < 10
COc1cccc(C(=O)OC(C)(C)C)c1-c1cc(-c2cccc(NC(=O)C(Cl)Cl)c2)on1 [Compound 700] |  |  |  | < 10 | > 10
CC(C)(C)OC(=O)c1cccc(F)c1-c1cc(-c2cccc(NC(=O)C(Cl)Cl)c2)on1 [Compound 701] |  |  |  | < 10 | < 10
COc1cccc(C(=O)O)c1-c1cc(-c2cccc(NC(=O)C(Cl)Cl)c2)on1 [Compound 702] |  |  |  | > 10 | < 10
O=C(O)c1cccc(F)c1-c1cc(-c2cccc(NC(=O)C(Cl)Cl)c2)on1 [Compound 703] |  |  |  | > 10 | > 10
COC(=O)c1cccc(OC)c1-c1cc(-c2cccc(NC(=O)C(Cl)Cl)c2)on1 [Compound 704] |  |  |  | > 10 | > 10
COC(=O)c1cccc(F)c1-c1cc(-c2cccc(NC(=O)C(Cl)Cl)c2)on1 [Compound 705] |  |  |  | < 10 | < 10
CC(C)Oc1cccc(Cl)c1-c1cc(-c2cccc(NC(=O)C(Cl)Cl)c2)on1 [Compound 706] |  |  |  | < 10 | < 10
Cc1oc(=O)oc1COC(=O)c1cccc(Cl)c1-c1cc(-c2cccc(NC(=O)C(Cl)Cl)c2)on1 [Compound 707] |  |  |  | < 10 | < 10
CCOc1cccc(Cl)c1-c1cc(-c2cccc(NC(=O)C(Cl)Cl)c2)on1 [Compound 708] |  |  |  | < 10 | < 10
O=C(Nc1cccc(-c2cc(-c3c(Cl)cccc3OCC3CC3)no2)c1)C(Cl)Cl [Compound 709] |  |  |  | < 10 | < 10
O=C(Nc1cccc(-c2cc(-c3c(Cl)cccc3OC(F)F)no2)c1)C(Cl)Cl [Compound 710] |  |  |  | < 10 | < 10
